In article PMC7127338 (Bioorganic & Medicinal Chemistry Letters, 2013):
Entries after “also recorded” stand apart in the source; their conditions may differ.

Key:
[1] = Stability study at different pH values; format: physicochemical; conditions: 2 days
[2] = Stability study at −20 °C; format: physicochemical

## C[C@H](NP(=O)(Oc1ccccc1)O[C@H]1O[C@H](CO)[C@@H](O)C1(F)F)C(=O)OC1CCCCC1 (stereo partly drawn) [compound 25c, 2-deoxy-2,2-difluoro-D-ribofuranose 1-O-phenyl-(cyclohexoxy-alaninyl)-phosphate]
[1]; pH 5 (acidic)
  Stability study at pH 5 (degradation): no degradation at all after 2 days; also recorded: No degradation observed over 2 days
[1]; pH 7 (neutral)
  Stability study at pH 7 (degradation): no degradation at all after 2 days; also recorded: No degradation observed over 2 days
[2]; storage at −20 °C
  Stability study at −20 °C (degradation): no degradation at all after 4 months; also recorded: No degradation observed after 4 months

## C[C@H](NP(=O)(Oc1ccccc1)O[C@H]1O[C@H](CO)[C@@H](O)[C@@H]1F)C(=O)OC1CCCCC1 (stereo partly drawn) [compound 14b, 2-deoxy-2-fluoro-D-arabinofuranose 1-O-phenyl-(cyclohexoxy-alaninyl)-phosphate]
[2]; 1 h after purification by column chromatography
  Purity after 1 h: 68%
[2]; 13 h (one night) at −20 °C
  Purity after 13 h: 30%
[2]; 20 h, −20 °C
  Purity after 20 h: 8%
